Reference: patent publication US20080090834A1, “SELECTIVE AZOLE PDE10A INHIBITOR COMPOUNDS” (Pfizer Inc, priority 2006, published 2008)
Where a name gives a salt, the structure may show the parent alone.

Legend:
[1] = target: T1, cloned rat PDE10A full-length enzyme (Rattus norvegicus, UniProt Q9QYJ6); assay: PDE10 enzyme inhibition, [3H]cAMP scintillation proximity assay; assay type: biochemical; conditions: rat PDE10A from Sf9 cells, 20 nM [3H]cAMP, SPA beads, 20 minute incubation at room temperature
T1 construct: cloned rat PDE10A full-length enzyme grown in transfected Sf9 insect cells; made in house; host or cells: Sf9 insect cells
T1 sequence (Q9QYJ6 1-794): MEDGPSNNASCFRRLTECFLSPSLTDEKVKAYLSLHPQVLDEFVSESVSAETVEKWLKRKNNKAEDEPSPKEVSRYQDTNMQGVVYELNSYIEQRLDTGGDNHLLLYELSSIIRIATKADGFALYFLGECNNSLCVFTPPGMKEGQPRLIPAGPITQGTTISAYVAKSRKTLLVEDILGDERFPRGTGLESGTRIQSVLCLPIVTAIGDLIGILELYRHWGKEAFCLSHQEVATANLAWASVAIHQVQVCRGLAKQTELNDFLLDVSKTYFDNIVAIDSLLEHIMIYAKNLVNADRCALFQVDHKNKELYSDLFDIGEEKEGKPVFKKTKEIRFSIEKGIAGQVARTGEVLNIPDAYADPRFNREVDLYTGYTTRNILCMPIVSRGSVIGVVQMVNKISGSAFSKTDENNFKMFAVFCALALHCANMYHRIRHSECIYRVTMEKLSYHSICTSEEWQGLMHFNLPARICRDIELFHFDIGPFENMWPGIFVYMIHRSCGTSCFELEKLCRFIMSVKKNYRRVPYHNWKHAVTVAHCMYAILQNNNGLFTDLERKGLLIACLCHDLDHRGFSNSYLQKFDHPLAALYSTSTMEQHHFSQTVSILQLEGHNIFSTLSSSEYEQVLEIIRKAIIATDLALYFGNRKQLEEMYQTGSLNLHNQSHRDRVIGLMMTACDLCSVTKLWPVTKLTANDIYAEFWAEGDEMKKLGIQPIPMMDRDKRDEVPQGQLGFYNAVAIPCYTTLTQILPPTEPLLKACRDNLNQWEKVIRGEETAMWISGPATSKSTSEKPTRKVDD
Procedure, shortened: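 Full-length rat PDE10A from Sf9 cells hydrolysed 20 nM [3H]cAMP in 50 mM Tris, 8.3 mM MgCl2, pH 7.5, 2% DMSO, for 20 minutes at room temperature (<10% conversion). Yttrium silicate SPA beads with zinc sulphate stopped the reaction and captured [3H]AMP; 1 uM papaverine defined non-specific binding, vehicle defined total conversion.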

| Compound | IC50 [1] [nM] | melting point [°C] |
| --- | --- | --- |
| Cc1ccc(-n2cc(-c3cscn3)nc2-c2ccc(-n3c(C(F)(F)F)nc4cccnc43)cc2)cn1 [Example 99, 2-(trifluoromethyl)-3-(4-(1-(6-methylpyridin-3-yl)-4-(thiazol-4-yl)-1H-imidazol-2-yl)phenyl)-3H-imidazo[4,5-b]pyridine] | 1.54 | 201 to 204 |
| COc1nc2cccnc2n1-c1ccc(-c2nc(-c3nccs3)cn2-c2ccc(C)nc2)cc1 [Example 81, 2-methoxy-3-(4-(1-(6-methylpyridin-3-yl)-4-(thiazol-2-yl)-1H-imidazol-2-yl)phenyl)-3H-imidazo[4,5-b]pyridine] | 0.33 | 190 to 192 |
| c1ccc(-c2cn(-c3cccnc3)c(-c3ccc(-n4ccc5cccnc54)cc3)n2)nc1 [Example 7, 1-(4-(4-(pyridin-2-yl)-1-(pyridin-3-yl)-1H-imidazol-2-yl)phenyl)-1H-pyrrolo[2,3-b]pyridine] | 6.84 | 174 to 176 |
| c1cncc(-n2cc(-c3nccs3)nc2-c2ccc(-n3ccc4cccnc43)cc2)c1 [Example 23, 1-(4-(1-(pyridin-3-yl)-4-(thiazol-2-yl)-1H-imidazol-2-yl)phenyl)-1H-pyrrolo[2,3-b]pyridine] | 3.32 | 195 to 197 |
| Cc1ccc(-n2cc(-c3ccccn3)nc2-c2ccc(-n3c(C)nc4cccnc43)cc2)cn1 [Example 57, 2-methyl-3-(4-(1-(6-methylpyridin-3-yl)-4-(pyridin-2-yl)-1H-imidazol-2-yl)phenyl)-3H-imidazo[4,5-b]pyridine] | 1.89 |  |
| c1ccc(-c2nc(-c3ccc(-n4ccc5cccnc54)cc3)n(-c3cccnc3)n2)nc1 [Preparation 123, 1-(4-(5-(pyridin-2-yl)-2-(pyridin-3-yl)-2H-1,2,4-triazol-3-yl)phenyl)-1H-pyrrolo[2,3-b]pyridine] | 26.2 |  |
| Cc1csc(-c2cn(-c3cncnc3)c(-c3ccc(-n4ccc5cccnc54)cc3)n2)n1 [Example 63] | 13.8 |  |
| Cc1cn(-c2ccc(-c3nc(-c4ccccn4)cn3-c3cccnc3)cc2)cn1 [Example 41, 3-(2-(4-(4-methyl-1H-imidazol-1-yl)phenyl)-4-(pyridin-2-yl)-1H-imidazol-1-yl)pyridine] | 293 |  |
| Cc1ccc(-n2cc(-c3ccccn3)nc2-c2ccc(-n3c(C(C)C)nc4cccnc43)cc2)cn1 [Example 59, 2-isopropyl-3-(4-(1-(6-methylpyridin-3-yl)-4-(pyridin-2-yl)-1H-imidazol-2-yl)phenyl)-3H-imidazo[4,5-b]pyridine] | 0.831 |  |
| Cc1ccc(-n2cc(-c3cncs3)nc2-c2ccc(-n3c(C(C)C)nc4cccnc43)cc2)cn1 [Example 97] | 1.96 |  |
| Cc1ccc(-n2cc(-c3ccccn3)nc2-c2ccc(-n3ccc4nccnc43)cc2)cn1 [Example 50, 5-(4-(1-(6-methylpyridin-3-yl)-4-(pyridin-2-yl)-1H-imidazol-2-yl)phenyl)-5H-pyrrolo[3,2-b]pyrazine] | < 3.47 |  |
| Fc1c(F)c(F)c2c(ccn2-c2ccc(-c3nc(-c4ccccn4)cn3-c3cccnc3)cc2)c1F [Example 38, 4,5,6,7-tetratfluoro-1-(4-(4-(pyridin-2-yl)-1-(pyridin-3-yl)-1H-imidazol-2-yl)phenyl)-1H-indole] | 170 |  |
| c1ccc(-c2cn(-c3cncnc3)c(-c3ccc(-c4cccnc4)cc3)n2)nc1 [Example 72] | 160 |  |
| c1ccc(-c2cn(-c3cccnc3)c(-c3ccc(-n4ncc5ccccc54)cc3)n2)nc1 [Example 35, 1-(4-(4-(pyridin-2-yl)-1-(pyridin-3-yl)-1H-imidazol-2-yl)phenyl)-1H-indazole] | 27.8 |  |
| c1ccc(-c2cn(-c3cccnc3)c(-c3ccc(-n4c5ccccc5c5cccnc54)cc3)n2)nc1 [Example 19, 9-(4-(4-(pyridin-2-yl)-1-(pyridin-3-yl)-1H-imidazol-2-yl)phenyl)-9H-pyrido[2,3-b]indole] | 0.992 |  |
| Cc1cc(-n2cc(-c3cccnc3)nc2-c2ccc(-n3ccc4cccnc43)cc2)ccn1 [Example 68, 1-(4-(1-(2-methylpyridin-4-yl)-4-(pyridin-3-yl)-1H-imidazol-2-yl)phenyl)-1H-pyrrolo[2,3-b]pyridine bis-TFA salt] | 5.1 |  |
| Cc1ccc(-n2cc(-c3ccccn3)nc2-c2ccc(-n3ccc4cnccc43)cc2)cn1 [Example 54, 1-(4-(1-(6-methylpyridine-3-yl)-4-(pyridin-2-yl)-1H-imidazol-2-yl)phenyl)-1H-pyrrolo[3,2-c]pyridine] | 5.82 |  |
| COc1ccc(-c2[nH]c(-c3cccs3)nc2-c2ccc(-n3ccc4cccnc43)cc2)cc1 [Example 103] | 2.82 |  |
| c1ccc(-c2cn(-c3ccc(-n4ccnc4)nc3)c(-c3ccc(-n4ccc5cccnc54)cc3)n2)nc1 [Example 8, 1-(4-(1-(6-(1H-imidazol-1-yl)pyridin-3-yl)-4-(pyridin-2-yl)-1H-imidazol-2-yl)phenyl)-1-H-pyrrolo[2,3-b]pyridine] | 1.48 |  |
